# Source: US20250171451A1, “NOVEL HETEROCYCLIC COMPOUND AND PHARMACEUTICAL COMPOSITION COMPRISING SAME” (Samjin Pharmaceutical Co., Ltd., priority 2022, published 2025)
# Key:
# [1] = system: NF2-deficient mesothelioma cell line NCI-H226; experiment: Evaluation of inhibition of cancer cell proliferation (CellTiter-Glo); type: cell-based; settings: Homo sapiens, 120 h, NCI-H226 cells, five days treatment, 2% FBS, read-out: Cancer cell growth inhibition NCI-H226 (GI50)
# Protocol: The NF2-deficient mesothelioma cell line NCI-H226 was purchased from ATCC (#CRL-5826). NCI-H226 cells were cultured in RRPMI medium (ATCC) containing penicillin (100 units/mL), streptomycin (100 μg/mL) and 10% fetal bovine serum (FBS) at 37° C. and 5% CO2.
# In 24 hours after dispensing said NCI-H226 cells into a 96-well plate, the cell culture medium was removed all, and then each compound corresponding to a certain concentration section (0.01, 0.05, 0.1, 0.5, 1, 5, 10 μM) or a vehicle solvent (final 1% DMSO) was diluted with a culture medium containing 2% FBS, treated at 100 μL for each well, and then cultured at 37° C. and 5% CO2. In five days after said treatment, CellTiter-Glo@2.0 Reagent (Promega) was treated in the same amount as the culture medium to measure cell growth, and placed in a shaker for two minutes so as to be well mixed, after which the plate was cultured at room temperature for ten minutes to stabilize a luminescence signal. After that, for ATP measurement through an intracellular luciferase reaction, the luminescence signal was measured using a microplate reader (TECAN). The value of the […] (GI50) at the moment when the cell proliferation was reduced by half was derived using the SoftMax Pro 5.4.1 program, and the results are shown in table 10 below.
# [2] = biological target: T1, recombinant GST-TEAD1 proteins (209 to 426 a.a.) (Homo sapiens, UniProt P28347); experiment: Evaluation of palmitoylation of TEAD protein; type: biochemical; settings: 5 μM compound, 15 minutes preincubation, 3 μM alkyne palmitoyl-CoA 30 minutes, pH 6.4, vs DMSO control
# T1 construct: recombinant GST-TEAD1 proteins (209 to 426 a.a.)
# How it was run: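 GST-TEAD1 (aa 209–426) preincubated 15 min with 5 μM compound, then autopalmitoylated 30 min with 3 μM alkyne palmitoyl-CoA in 50 mM MES pH 6.4; stopped with 1% SDS. Click biotinylation, SDS-PAGE and streptavidin-HRP blot; band intensity relative to DMSO control, normalised to anti-GST signal.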
# [3] = system: TEAD response element (TRE) luciferase reporter in MCF-7 cell lines; experiment: TEAD response element (TRE) reporter assay; type: cell-based; settings: Homo sapiens, MCF7; 0.2 μM compound, 24 hours, MCF-7 TEAD reporter cells, relative to vehicle (1% DMSO)
# How it was run: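 MCF-7 cells stably carrying a TRE-driven firefly luciferase reporter, treated 24 h after plating with compound at 0.2 μM final (1% DMSO) in serum-free medium for 24 h. Luminescence expressed relative to vehicle control set at 10000.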
# T1 sequence (P28347 209-426): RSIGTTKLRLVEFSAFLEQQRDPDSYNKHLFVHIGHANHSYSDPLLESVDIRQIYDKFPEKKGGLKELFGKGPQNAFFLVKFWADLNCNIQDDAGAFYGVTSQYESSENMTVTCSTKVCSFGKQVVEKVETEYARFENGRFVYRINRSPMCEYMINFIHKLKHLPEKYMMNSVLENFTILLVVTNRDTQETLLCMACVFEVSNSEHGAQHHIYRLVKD
Compound,GI50 [1],inhibition at 5 µM [2],inhibition at 0.2 µM [3]
"C=CC(=O)Nc1cnc2c(c1)c(C)nn2-c1ccc(C(F)(F)F)nc1 [Compound 77, N-(3-methyl-1-(6-(trifluoromethyl)pyridin-3-yl)-1H-pyrazolo[3,4-b]pyridin-5-yl)acrylamide]",0.03 µM,40 to 80%,> 50%
"C=CC(=O)N(C)c1cnc2c(c1)c(C)nn2-c1ccc(OC(F)(F)F)cc1 [Compound 90, N-methyl-N-(3-methyl-1-(4-(trifluoromethoxy)phenyl)-1H-pyrazolo[3,4-b]pyridin-5-yl)acrylamide]",0.03 µM,> 80%,> 50%
"C=CC(=O)N(C)c1cnc2c(c1)c(C)nn2-c1ccc(C(F)(F)F)nc1 [Compound 92, N-methyl-N-(3-methyl-1-(6-(trifluoromethyl)pyridin-3-yl)-1H-pyrazolo[3,4-b]pyridin-5-yl)acrylamide]",0.05 µM,40 to 80%,> 50%
C=CC(=O)Nc1cnc2c(c1)c(C)nn2-c1cc(Cl)c(Cl)cc1C [Compound 105],0.26 µM,40 to 80%,> 50%

# Continued, in another order:
GI50 [1],inhibition at 5 µM [2],Compound,inhibition at 0.2 µM [3]
0.03 µM,> 80%,"C=CC(=O)N(C)c1cnc2c(c1)c(C)nn2-c1ccc(C(F)(F)F)cc1 [Compound 86, N-methyl-N-(3-methyl-1-(4-(trifluoromethyl)phenyl)-1H-pyrazolo[3,4-b]pyridin-5-yl)acrylamide]",> 50%
0.3 µM,40 to 80%,"C=CC(=O)Nc1cnc2c(c1)c(C)nn2-c1cnc(C(F)(F)F)nc1 [Compound 95, N-(3-methyl-1-(2-(trifluoromethyl)pyrimidin-5-yl)-1H-pyrazolo[3,4-b]pyridin-5-yl)acrylamide]",> 50%
